In US10294217B2, “Fluoroindole derivatives as muscarinic M1 receptor positive allosteric modulators” (Suven Life Sciences Limited, priority 2015, dated 2019):

How the values were obtained:
[1] = system: sAPPα; test: Estimation of cortical sAPPα levels in rat brain (ELISA); format: in vivo, Male Wistar rats; settings: i.p.; for sAPPα levels: cortex, 60 minutes after treatment, mean ± SEM (n = 5/group); for Inference: cortical sAPPα levels, 1.0-10.0 mg/kg
Procedure: Estimation of Cortical sAPPα Levels in Rat Brain
Male Wistar rats (250±45 grams) were randomly divided into different treatment groups (n=5 per group). Control group of rats were administered with intraperitoneal (i.p.) injection of vehicle (99.75% of 0.25% hydroxyethylcellulose HHX+0.25% tween 80 for examples 8 and 22; 5% Pharmasolve+45% propylene glycol+50% polyethylene glycol-400 for example 1). Rats in treatment groups were allocated to one dose of test compound and administered with a single intraperitoneal injection of test compound (dose volume of 2 mL/kg). Rats were sacrificed by cervical dislocation at 60 minutes after treatment. Brains were quickly isolated and the cortex was dissected out at −20° C. The cortex was immediately kept on a dry ice and weighed before being stored at −80° C. until quantification of sAPPα using Enzyme-linked immunosorbent assay (ELISA).
• 1. Protease inhibitor cocktail tablets (complete mini, Make-Roche; 1 tablet for 8 mL) were added to the Tris Buffer Saline (TBS) prior to using the buffer for tissue processing. • 2. Cortical tissues were thawed and homogenized in five volumes of TBS and the solution was centrifuged at 15,000 rpm at 4° C. for 90 minutes. • 3. The supernatant was discarded and homogenized in five volumes of TBS. Samples were centrifuged at 15,000 rpm at 4° C. for 30 minutes. • 4. Supernatant was discarded and precipitate was sonicated in ten volumes of 50 mM Tris buffer (pH: 7.6) containing 6 M of Guanidine-HCl. Sonication was repeated four times with duration of five seconds every time. • 5. Resulting mixture was incubated at the room temperature for 30 minutes and centrifuged at 15,000 rpm at 4° C. for 30 minutes. Supernatant was diluted 100 times with EIA buffer prior to addition in the pre-coated ELISA plates. Measurement of sAPPα by ELISA Kit:
To investigate the role of an acute treatment of test compound on sAPPα levels, the expression of this protein was measured in samples obtained from brain homogenates of treated and untreated rats by employing ELISA assay. The entire procedure was followed as described in the ELISA kit manual (Mouse/Rat sAPPα (highly sensitive) assay kit, Catalog Number: JP27419, Immuno-Biological Laboratories Co. Ltd, Hamburg, Germany).
Statistical analyses were performed using the Graph Pad Prism (Version 4). Results are expressed as Mean±SEM levels of sAPPα expressed as percentage of control values obtained from rats treated with vehicle. Statistical significance after treatment was assessed using One-Way ANOVA followed by Dunnett's post test and the significance level was set below p value less than 0.05 and the results are tabulated in table 7.

[2] = system: cerebral blood flow in the frontal cortex; test: Modulation of cerebral blood flow in frontal cortex; format: in vivo; settings: anaesthetized rats, intravenous, Laser Doppler, FIG. 2
Procedure: Modulation of Cerebral Blood Flow in Frontal Cortex:
The effect of test compound on modulation of cerebral blood flow was evaluated using rats.
Rats were acclimatized to the laboratory environment for at least 7 days. Rats (300-350 grams) were housed in a group of four in a controlled environment (Temp=21±3° C.; Humidity=30-70%) and maintained on a 12-hour light/dark cycle with lights on at 07:00 AM. Food and water was provided ad libitum.
Rats were anaesthetized with 12% urethane (i.p.). Animal's body core temperature was maintained at 37° C. via heating pad and rectal temperature probe. A small incision was made at one of the ventral side of the hind limb and the femoral vein was cannulated with PE10 tubing for drug application. Then animal was placed into a stereotaxic frame and a midline incision was made to expose the skull. A burr hole was drilled over the frontal cortex (stereotaxic coordinates 1 mm anterior and 4 mm lateral to bregma). Oxygen was supplied through the nose cone of the seterotaxic apparatus which was connected to the controlled gaseous supplier with a flow of 200 mL/minute. Laser Doppler probe (AD Instruments Inc) was placed over the hole to monitor cerebral blood flow. […] Data obtained was calculated as percent increase relative to resting basal blood flow level. […]

SMILES | sAPPα levels ([1]; 1.0 mg/kg) | sAPPα levels ([1]; 3.0 mg/kg) | sAPPα levels ([1]; 10.0 mg/kg) | Inference [1] | cerebral blood flow [2]
Cn1cc(Cn2cc(C(=O)N[C@H]3CCCC[C@@H]3O)c3c(F)cccc32)cn1 [Example 1, N-[(1S,2S)-2-Hydroxycyclohexyl]-1-(1-methyl-1H-pyrazol-4-ylmethyl)-4-fluoro-1H-indole-3-carboxamide] | 155 ± 6 % of vehicle | 153 ± 7 % of vehicle | 142 ± 6 % of vehicle | Active | significantly increased the cerebral blood flow
Cl.O=C(N[C@H]1CCNC[C@H]1F)c1cn(Cc2ccnc(F)c2)c2c(F)ccc(F)c12 (single isomer, unassigned; isomer-i) [Example 22, Cis-N-(3-Fluoropiperidin-4-yl)-1-(2-fluoropyridin-4-ylmethyl)-4,7-difluoro-1H-indole-3-carboxamide hydrochloride (Isomer-I)] | 143 ± 14 % of vehicle | 164 ± 12 % of vehicle | 176 ± 10 % of vehicle | Active | 
O=C(N[C@H]1CCCC[C@@H]1O)c1cn(Cc2ccnc(F)c2)c2c(F)ccc(F)c12 [Example 8, N-[(1S,2S)-2-Hydroxycyclohexyl]-1-(2-fluoropyridin-4-ylmethyl)-4,7-difluoro-1H-indole-3-carboxamide] | 120 ± 17 % of vehicle | 137 ± 14 % of vehicle | 173 ± 10 % of vehicle | Active | 
